Measurements reported in patent US20250282776A1, “Bicyclic TLR7 Agonists and Uses Thereof” (Bristol-Myers Squibb Company, priority 2024, published 2025).

How the values were obtained:
[1] = target: T1, human TLR7 (hTLR7) (Homo sapiens, UniProt Q9NYK1); test: Human TLR7 agonist activity assay (HEK-Blue TLR7 SEAP reporter); type: cell-based; conditions: HEK-Blue TLR7 cells, 18 h incubation, Quanti-Blue, OD 620 nm, some values average of multiple measurements
T1 construct: host or cells: HEK-Blue TLR7 cells (engineered human embryonic kidney cells)
T1 sequence (Q9NYK1 27-1049): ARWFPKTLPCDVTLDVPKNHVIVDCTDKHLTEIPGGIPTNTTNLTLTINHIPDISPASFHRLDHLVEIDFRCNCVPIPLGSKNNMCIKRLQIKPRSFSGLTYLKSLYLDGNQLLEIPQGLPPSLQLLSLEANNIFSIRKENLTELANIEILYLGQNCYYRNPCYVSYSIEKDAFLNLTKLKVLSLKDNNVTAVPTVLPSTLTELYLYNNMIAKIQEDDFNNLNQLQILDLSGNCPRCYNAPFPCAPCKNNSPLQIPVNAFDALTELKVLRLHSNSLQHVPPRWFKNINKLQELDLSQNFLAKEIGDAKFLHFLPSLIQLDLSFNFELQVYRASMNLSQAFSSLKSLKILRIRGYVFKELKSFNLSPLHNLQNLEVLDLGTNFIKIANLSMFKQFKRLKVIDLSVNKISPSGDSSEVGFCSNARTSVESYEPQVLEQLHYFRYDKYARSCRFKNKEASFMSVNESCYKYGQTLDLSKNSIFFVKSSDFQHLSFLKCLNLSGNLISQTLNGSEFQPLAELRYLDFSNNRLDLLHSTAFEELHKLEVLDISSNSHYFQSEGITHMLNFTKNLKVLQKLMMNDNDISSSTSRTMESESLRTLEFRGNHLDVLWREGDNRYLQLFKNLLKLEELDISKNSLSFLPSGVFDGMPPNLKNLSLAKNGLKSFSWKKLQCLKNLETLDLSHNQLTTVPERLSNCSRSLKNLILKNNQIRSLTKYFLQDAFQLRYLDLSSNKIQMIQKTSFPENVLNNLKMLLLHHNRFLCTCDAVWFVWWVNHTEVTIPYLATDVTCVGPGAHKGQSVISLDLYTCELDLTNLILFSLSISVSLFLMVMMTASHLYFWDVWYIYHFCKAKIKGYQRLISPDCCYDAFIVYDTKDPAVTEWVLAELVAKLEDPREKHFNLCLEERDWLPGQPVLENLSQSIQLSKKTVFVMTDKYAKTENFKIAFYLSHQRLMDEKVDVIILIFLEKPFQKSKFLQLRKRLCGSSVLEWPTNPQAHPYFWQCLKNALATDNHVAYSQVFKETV
Description: (§1) This procedure describes a method for assaying human TLR7 (hTLR7) and human TLR8 (hTLR8) agonist activity of the compounds disclosed herein.
(§2) HEK-Blue™ TLR7 cells were added to each well of a 384-well tissue-culture plate (15,000 cells per well) and incubated 16-18 h at 37° C., 5% CO2. Compounds (100 nL) were dispensed into wells containing the HEK-Blue™ TLR cells and the treated cells were incubated at 37° C., 5% CO2. After 18 h, ten microliters 5 of freshly prepared Quanti-Blue™ reagent (Invivogen) was added to each well and incubated for 30 min (37° C., […]). SLAP levels were measured using an Envision plate reader (OD=620 nm). The half maximal effective concentration values (ECSO; compound concentration which induced a response halfway between the assay baseline and maximum) were calculated. Some of the reported activities were the average of multiple measurements.

[2] = target: T2, human TLR8 (hTLR8) (Homo sapiens, UniProt Q9NR97); test: Human TLR8 agonist activity assay (measured in a similar manner); type: cell-based; conditions: HEK-Blue TLR cells, SEAP reporter, measured in a similar manner to TLR7; some values average of multiple measurements
T2 construct: expressed in transfected cells
T2 sequence (Q9NR97 27-1041): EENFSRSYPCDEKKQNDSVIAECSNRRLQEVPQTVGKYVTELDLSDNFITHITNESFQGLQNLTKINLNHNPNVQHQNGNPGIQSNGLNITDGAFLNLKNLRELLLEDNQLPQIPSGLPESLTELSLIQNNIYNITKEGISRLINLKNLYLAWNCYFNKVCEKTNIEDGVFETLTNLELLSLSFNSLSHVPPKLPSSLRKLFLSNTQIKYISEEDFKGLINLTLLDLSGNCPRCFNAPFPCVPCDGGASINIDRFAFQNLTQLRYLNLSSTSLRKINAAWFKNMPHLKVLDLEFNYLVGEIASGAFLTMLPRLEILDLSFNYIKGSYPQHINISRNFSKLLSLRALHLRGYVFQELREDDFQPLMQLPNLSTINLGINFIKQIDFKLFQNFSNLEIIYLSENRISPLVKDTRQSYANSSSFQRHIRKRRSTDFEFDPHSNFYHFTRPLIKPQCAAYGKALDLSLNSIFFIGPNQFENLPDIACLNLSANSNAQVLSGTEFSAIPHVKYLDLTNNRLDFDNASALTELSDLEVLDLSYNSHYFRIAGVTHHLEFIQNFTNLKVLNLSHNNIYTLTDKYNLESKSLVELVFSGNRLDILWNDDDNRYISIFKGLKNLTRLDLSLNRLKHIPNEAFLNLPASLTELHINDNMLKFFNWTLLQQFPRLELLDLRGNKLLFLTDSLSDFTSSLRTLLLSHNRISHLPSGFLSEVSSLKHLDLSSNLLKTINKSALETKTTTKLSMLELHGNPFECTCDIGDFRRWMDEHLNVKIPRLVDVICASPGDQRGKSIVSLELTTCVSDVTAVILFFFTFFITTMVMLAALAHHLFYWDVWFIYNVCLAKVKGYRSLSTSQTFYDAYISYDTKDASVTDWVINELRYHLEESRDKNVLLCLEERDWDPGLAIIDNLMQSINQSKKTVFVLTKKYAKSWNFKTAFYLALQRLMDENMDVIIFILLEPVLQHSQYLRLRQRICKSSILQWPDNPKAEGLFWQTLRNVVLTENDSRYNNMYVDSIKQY
Description: as §1
as §2, with “The half maximal effective concentration values (ECSO; compound concentration which induced a response halfway between the assay baseline and maximum) were calculated.” left out
TLR8 activity was measured in a similar manner.

Structure (SMILES) | EC50 [1] | EC50 [2]
CCCCN(CCO)c1nc(N)nc2cn(Cc3ccc(CN[C@H]4CCOC4)c4c3OCCC4)nc12 [Compound 136, (S)-2-((5-Amino-2-((5-(((tetrahydrofuran-3-yl)amino)methyl)chroman-8-yl)methyl)-2H-pyrazolo[4,3-d]pyrimidin-7-yl)(butyl)amino) ethan-1-ol] | 861 nM | 360 nM
CCCCN(CCO)c1nc(N)nc2cn(Cc3c(OC)cc(CN[C@@H]4CCOC4)cc3OC)nc12 [Compound 145] | 1440 nM | 2020 nM
CCCCN(CCO)c1nc(N)nc2cn(Cc3ccc(CNC4CCOC(C)(C)C4)cc3OC)nc12 (single isomer, unassigned) [Compound 111, 2-((5-Amino-2-(4-(((2,2-dimethyltetrahydro-2H-pyran-4-yl)amino)methyl)-2-methoxybenzyl)-2H-pyrazolo[4,3-d]pyrimidin-7-yl)(butyl)amino) ethan-1-ol] | 654 nM | 453 nM
CCCCN(CCO)c1nc(N)nc2cn(Cc3ccc(CN4CC5(CCO5)C4)cc3OC)nc12 [Compound 28] | 284 nM | 266 nM
CCCCN(CCO)c1nc(N)nc2cn(Cc3ccc(CNC4CCC4)c4scnc34)nc12 [Compound 184] | 401 nM | 310 nM
CCCCN(CCO)c1nc(N)nc2cn(Cc3ccc(CN4CCCC4)cc3OC)nc12 [Compound 4] | 694 nM | 633 nM
CCCCN(CCO)c1nc(N)nc2cn(Cc3ccc(CNC4CCOC(C)C4)cc3OC)nc12 (single isomer, unassigned) [Compound 122] | 561 nM | 189 nM
CCCCN(CCO)c1nc(N)nc2cn(Cc3ccc(CNC4(CO)CCOCC4)cc3OC)nc12 [Compound 154] | 2140 nM | 1100 nM
CCCCN(CCO)c1nc(N)nc2cn(Cc3ccc(CN[C@H]4C[C@H](OC)C4)n4ncnc34)nc12 [Compound 174] | 757 nM | 1450 nM
CCCCN(CCO)c1nc(N)nc2cn(Cc3ccc(CN[C@H]4C[C@H](OC)C4)c4oc(C)nc34)nc12 [Compound 141, 2-((5-amino-2-((7-((((1r,3r)-3-methoxycyclobutyl)amino)methyl)-2-methylbenzo[d]oxazol-4-yl)methyl)-2H-pyrazolo[4,3-d]pyrimidin-7-yl)(butyl)amino)ethan-1-ol] | 439 nM | 421 nM
CCCCN(CCO)c1nc(N)nc2cn(Cc3ccc(CN4CC(O)C4)cc3OC)nc12 [Compound 20] | 1180 nM | 705 nM
CCCCN(CCO)c1nc(N)nc2cn(Cc3ccc(CNC4CCOC(C)(C)C4)cc3OC)nc12 (single isomer, unassigned) [Compound 112, 2-((5-Amino-2-(4-(((2,2-dimethyltetrahydro-2H-pyran-4-yl)amino)methyl)-2-methoxybenzyl)-2H-pyrazolo[4,3-d]pyrimidin-7-yl)(butyl)amino) ethan-1-ol] | 585 nM | 562 nM
CCCCN(CCO)c1nc(N)nc2cn(Cc3ccc(CNC4CCC4)c4oc(C)nc34)nc12 [Compound 140, 2-((5-Amino-2-((7-((cyclobutylamino)methyl)-2-methylbenzo[d]oxazol-4-yl)methyl)-2H-pyrazolo-[4,3-d]pyrimidin-7-yl) (butyl)amino) ethan-1-ol] | 993 nM | 674 nM
CCCCN(CCO)c1nc(N)nc2cn(Cc3ccc(CNC4CCOC(C)(C)C4)cc3OC)nc12 (racemic) [Compound 103, 2-((5-Amino-2-(4-(((2,2-dimethyltetrahydro-2H-pyran-4-yl)amino)methyl)-2-methoxybenzyl)-2H-pyrazolo[4,3-d]pyrimidin-7-yl)(butyl)amino) ethan-1-ol] | 322 nM | 202 nM
COc1cc(CNC2CCC2)ccc1Cn1cc2nc(N)nc(N(CCO)CCCCF)c2n1 [Compound 176] | 1640 nM | 1950 nM
COc1cc(CN[C@@H]2CCOC2)ccc1Cn1cc2nc(N)nc(N(CCO)CCCCF)c2n1 [Compound 173] | 2630 nM | 3130 nM
CCCCN(CCO)c1nc(N)nc2cn(Cc3c(F)cc(CNCC(C)(C)C)cc3OC)nc12 [Compound 80] | 1410 nM | 1620 nM
CCCCN(CCO)c1nc(N)nc2cn(Cc3ccc(CN[C@@H]4CCCN(S(C)(=O)=O)C4)c4cccnc34)nc12 [Compound 200, (R)-2-((5-Amino-2-((5-(((1-(methylsulfonyl)piperidin-3-yl)amino)methyl)quinolin-8-yl)methyl)-2H-pyrazolo[4,3-d]pyrimidin-7-yl)(butyl)amino) ethan-1-ol] | 301 nM | 879 nM
CCCCN(CCO)c1nc(N)nc2cn(Cc3ccc(CN[C@@H]4CCOC4)c4c3OCCC4)nc12 [Compound 135] | 1140 nM | 491 nM
CCCCN(CCO)c1nc(N)nc2cn(Cc3c(F)cc(CN[C@H]4C[C@H](O)C4)cc3OC)nc12 [Compound 94] | 1500 nM | 2660 nM
CCCCN(CCO)c1nc(N)nc2cn(Cc3ccc(CN[C@H]4CCOC4)cc3C(F)F)nc12 [Compound 99] | 1910 nM | 1580 nM
CCCCN(CCO)c1nc(N)nc2cn(Cc3ccc(CNC(C)C)cc3)nc12 [Compound 162] | 1570 nM | 805 nM
CCCCN(CCO)c1nc(N)nc2cn(Cc3cc(OC)c(C4CCN(C(C)C)CC4)cc3OC)nc12 [Compound 110] | 39 nM | 702 nM
CCCCN(CCO)c1nc(N)nc2cn(Cc3ccc(CN[C@@H]4CCCN(C(=O)OC)C4)c4cccnc34)nc12 [Compound 185, Methyl (R)-3-(((8-((5-amino-7-(butyl(2-hydroxyethyl)amino)-2H-pyrazolo[4,3-d]pyrimidin-2-yl)methyl)quinolin-5-yl)methyl)amino) piperidine-1-carboxylate] | 499 nM | 508 nM
CCCCN(CCO)c1nc(N)nc2cn(Cc3ccc(CNC4CCCOC4)cc3OC)nc12 (centres unmarked) [Compound 104] | 1750 nM | 2160 nM
